Experiments:
[1] = biological target: T1, KRas^G12C (Homo sapiens, UniProt P01116, G12C); assay: KRas binding assay (TR-FRET tracer displacement), KRas G12C; details: for inhibition at 0.01 µM: single point, 10 nM compound, TR-FRET
T1 construct: Biotinylated KRas (corresponding to amino acids 1-169, produced at Accelegan Inc.); biotin (biotinylated); purchased Accelegan Inc

[2] = tested on: KRas-mediated phosphorylation of ERK in H727 cells; assay: Inhibition of KRas-mediated phosphorylation of ERK (Cisbio HTRF pERK), H727 cells; format: cell-based; details: Homo sapiens; for IC50: NCI-H727, H727 cells, HTRF pERK
How it was run: (§1)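 6,000 cells/well; cpd 10 uM top, 3-fold x10, 0.8% DMSO final; 3 hr incubation; Min ctrl Trametinib 0.2 uM; lysis 40 min 4° C shaking; d2 + Cryptate Ab mix, 2 hr RT; HTRF read.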

[3] = biological target: T2, KRas^WT (Homo sapiens, UniProt P01116); assay: KRas binding assay (TR-FRET tracer displacement), KRas WT; details: for inhibition at 0.01 µM: single point, 10 nM compound, TR-FRET
T2 construct: Biotinylated KRas (corresponding to amino acids 1-169, produced at Accelegan Inc.); biotin (biotinylated); purchased Accelegan Inc
T2 sequence (P01116 1-169 isoform P01116-2): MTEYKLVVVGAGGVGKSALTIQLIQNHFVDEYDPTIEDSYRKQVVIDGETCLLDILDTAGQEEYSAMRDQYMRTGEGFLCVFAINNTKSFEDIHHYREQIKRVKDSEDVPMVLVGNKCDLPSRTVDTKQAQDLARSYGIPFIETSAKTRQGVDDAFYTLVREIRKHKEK

[4] = biological target: T3, KRas^G12S (Homo sapiens, UniProt P01116, G12S); assay: KRas binding assay (TR-FRET tracer displacement), KRas G12S; details: for inhibition at 0.01 µM: single point, 10 nM compound, TR-FRET
T3 construct: Biotinylated KRas (corresponding to amino acids 1-169, produced at Accelegan Inc.); biotin (biotinylated); purchased Accelegan Inc
T3 sequence (P01116 1-169 isoform P01116-2 G12S): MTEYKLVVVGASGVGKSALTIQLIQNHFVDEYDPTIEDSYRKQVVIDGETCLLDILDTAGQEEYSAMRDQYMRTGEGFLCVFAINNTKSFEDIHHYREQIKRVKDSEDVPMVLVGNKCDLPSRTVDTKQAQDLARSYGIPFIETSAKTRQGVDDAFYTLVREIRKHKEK

[5] = biological target: T4, KRas^G12V (Homo sapiens, UniProt P01116, G12V); assay: KRas binding assay (TR-FRET tracer displacement), KRas G12V
T4 construct: Biotinylated KRas (corresponding to amino acids 1-169, produced at Accelegan Inc.); biotin (biotinylated); purchased Accelegan Inc
T4 sequence (P01116 1-169 isoform P01116-2 G12V): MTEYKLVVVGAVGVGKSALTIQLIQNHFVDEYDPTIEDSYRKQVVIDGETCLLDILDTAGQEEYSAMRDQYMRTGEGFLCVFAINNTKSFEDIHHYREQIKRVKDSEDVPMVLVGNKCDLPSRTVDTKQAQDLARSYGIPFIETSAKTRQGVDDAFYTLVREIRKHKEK

[6] = tested on: KRas-mediated phosphorylation of ERK in AsPC-1 cells; assay: Inhibition of KRas-mediated phosphorylation of ERK (Cisbio HTRF pERK), AsPC-1 cells; format: cell-based; details: Homo sapiens; for IC50: ASPC1, AsPC-1 cells, HTRF pERK
How it was run: as §1

[7] = tested on: KRas-mediated phosphorylation of ERK in PSN1 cells; assay: Inhibition of KRas-mediated phosphorylation of ERK (Cisbio HTRF pERK), PSN1 cells; format: cell-based; details: Homo sapiens
How it was run: (§2)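 Seeding density was 6,000 cells/well; medium RPMI, 10% FBS. Read-out by homogeneous time-resolved fluorescence (pERK) after 4 hours covered at room temperature.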

[8] = biological target: T5, KRas^G12R (Homo sapiens, UniProt P01116, G12R); assay: KRas binding assay (TR-FRET tracer displacement), KRas G12R
T5 construct: Biotinylated KRas (corresponding to amino acids 1-169, produced at Accelegan Inc.); biotin (biotinylated); purchased Accelegan Inc
T5 sequence (P01116 1-169 isoform P01116-2 G12R): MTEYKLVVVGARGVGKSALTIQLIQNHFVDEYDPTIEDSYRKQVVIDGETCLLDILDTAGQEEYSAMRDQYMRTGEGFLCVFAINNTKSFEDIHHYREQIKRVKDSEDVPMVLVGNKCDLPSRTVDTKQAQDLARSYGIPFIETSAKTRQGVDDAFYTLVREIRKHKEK

[9] = tested on: KRas-mediated phosphorylation of ERK in H460 cells; assay: Inhibition of KRas-mediated phosphorylation of ERK (Cisbio HTRF pERK), H460 cells; format: cell-based; details: Homo sapiens; for inhibition at 0.1 µM: NCI-H460, 3 h, single point, 100 nM compound, 3 hrs; for IC50: NCI-H460, HTRF pERK
How it was run: as §1

[10] = biological target: T6, KRas^G12A (Homo sapiens, UniProt P01116, G12A); assay: KRas binding assay (TR-FRET tracer displacement), KRas G12A; details: for inhibition at 0.01 µM: single point, 10 nM compound, TR-FRET
T6 construct: Biotinylated KRas (corresponding to amino acids 1-169, produced at Accelegan Inc.); biotin (biotinylated); purchased Accelegan Inc
T6 sequence (P01116 1-169 isoform P01116-2 G12A): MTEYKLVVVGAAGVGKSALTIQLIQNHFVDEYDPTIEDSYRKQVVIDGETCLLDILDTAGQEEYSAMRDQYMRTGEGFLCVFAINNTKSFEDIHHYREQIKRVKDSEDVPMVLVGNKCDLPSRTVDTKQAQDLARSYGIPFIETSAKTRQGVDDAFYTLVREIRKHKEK

[11] = tested on: KRas-mediated phosphorylation of ERK in H358 cells; assay: Inhibition of KRas-mediated phosphorylation of ERK (Cisbio HTRF pERK), H358 cells; format: cell-based; details: Homo sapiens; for inhibition at 0.1 µM: NCI-H358, 3 h, single point, 100 nM compound, 3 hrs; for IC50: NCI-H358, HTRF pERK
How it was run: as §1

[12] = biological target: T7, KRas^G13D (Homo sapiens, UniProt P01116, G13D); assay: KRas binding assay (TR-FRET tracer displacement), KRas G13D; details: for inhibition at 0.01 µM: single point, 10 nM compound, TR-FRET
T7 construct: Biotinylated KRas (corresponding to amino acids 1-169, produced at Accelegan Inc.); biotin (biotinylated); purchased Accelegan Inc
T7 sequence (P01116 1-169 isoform P01116-2 G13D): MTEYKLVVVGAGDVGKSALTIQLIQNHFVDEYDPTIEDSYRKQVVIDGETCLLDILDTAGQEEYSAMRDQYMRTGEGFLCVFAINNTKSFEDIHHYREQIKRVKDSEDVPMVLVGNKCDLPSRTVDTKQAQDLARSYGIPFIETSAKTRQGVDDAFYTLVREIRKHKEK

[13] = biological target: T8, KRas^G12D (Homo sapiens, UniProt P01116, G12D); assay: KRas binding assay (TR-FRET tracer displacement), KRas G12D
T8 construct: Biotinylated KRas (corresponding to amino acids 1-169, produced at Accelegan Inc.); biotin (biotinylated); purchased Accelegan Inc
T8 sequence (P01116 1-169 isoform P01116-2 G12D): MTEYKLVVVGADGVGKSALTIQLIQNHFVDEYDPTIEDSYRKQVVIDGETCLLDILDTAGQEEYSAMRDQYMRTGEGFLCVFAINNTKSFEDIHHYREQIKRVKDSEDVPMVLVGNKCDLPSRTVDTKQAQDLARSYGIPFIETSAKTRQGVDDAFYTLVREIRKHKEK

[14] = biological target: T9, KRas^Q61H (Homo sapiens, UniProt P01116, Q61H); assay: KRas binding assay (TR-FRET tracer displacement), KRas Q61H; details: for inhibition at 0.01 µM: single point, 10 nM compound, TR-FRET
T9 construct: Biotinylated KRas (corresponding to amino acids 1-169, produced at Accelegan Inc.); biotin (biotinylated); purchased Accelegan Inc
T9 sequence (P01116 1-169 isoform P01116-2 Q61H): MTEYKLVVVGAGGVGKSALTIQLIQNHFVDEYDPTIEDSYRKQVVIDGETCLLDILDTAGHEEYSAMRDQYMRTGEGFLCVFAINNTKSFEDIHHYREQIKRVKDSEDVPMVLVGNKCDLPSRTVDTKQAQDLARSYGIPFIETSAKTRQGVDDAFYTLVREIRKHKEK

[15] = tested on: KRas-mediated phosphorylation of ERK in A549 cells; assay: Inhibition of KRas-mediated phosphorylation of ERK (Cisbio HTRF pERK), A549 cells; format: cell-based; details: Homo sapiens; for inhibition at 0.1 µM: A549, 3 h, single point, 100 nM compound, 3 hrs; for IC50: HTRF pERK
How it was run: (§3)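 Following a 3-hr exposure of cells to serially diluted compound (from 10 uM, 3-fold, 10 doses), cold lysis for 40 mins preceded a 2-hr room-temperature HTRF immunoassay for phosphorylated ERK.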

[16] = tested on: KRas-mediated phosphorylation of ERK in HCT116 cells; assay: Inhibition of KRas-mediated phosphorylation of ERK (Cisbio HTRF pERK), HCT116 cells; format: cell-based; details: Homo sapiens; for inhibition at 0.1 µM: HCT-116, 3 h, single point, 100 nM compound, 3 hrs; for IC50: HCT-116, HTRF pERK
How it was run: as §3

[17] = tested on: KRas-mediated phosphorylation of ERK in MKN1 cells; assay: Inhibition of KRas-mediated phosphorylation of ERK (Cisbio HTRF pERK), MKN1 cells; format: cell-based; details: Homo sapiens, MKN-1
How it was run: as §2

T1 sequence (P01116 1-169 isoform P01116-2 G12C): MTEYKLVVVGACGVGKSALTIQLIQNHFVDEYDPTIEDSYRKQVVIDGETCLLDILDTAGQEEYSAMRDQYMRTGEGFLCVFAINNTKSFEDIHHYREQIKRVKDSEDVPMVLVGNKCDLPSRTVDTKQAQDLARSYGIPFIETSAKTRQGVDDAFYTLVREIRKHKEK

inhibition at 0.01 µM [1] [%]	IC50 [2] [nM]	inhibition at 0.01 µM [3] [%]	inhibition at 0.01 µM [4] [%]	IC50 [5] [nM]	IC50 [6] [nM]	IC50 [7] [nM]	IC50 [8] [nM]	inhibition at 0.01 µM [10] [%]	inhibition at 0.01 µM [12] [%]	IC50 [13] [nM]	inhibition at 0.01 µM [14] [%]	IC50 [17] [nM]	IC50 [9] [nM]	IC50 [11] [nM]	IC50 [15] [nM]	Compound	inhibition at 0.1 µM [9] [%]	inhibition at 0.1 µM [11] [%]	inhibition at 0.1 µM [15] [%]	inhibition at 0.1 µM [16] [%]	also measured
89	20	73	82	< 2	105	9490	< 2	70	82	15	82	5				CCc1c(F)ccc2cc(O)cc(-c3ncc4c(N5CC6CCC(C5)C6C#N)nc(OC[C@@]56CCCN5C[C@H](F)C6)nc4c3F)c12 (stereo partly drawn) [Example 559, 3-(7-(8-ethyl-7-fluoro-3-hydroxynaphthalen-1-yl)-8-fluoro-2-(((2R,7aS)-2-fluorohexahydro-1H-pyrrolizin-7a-yl)methoxy)pyrido[4,3-d]pyrimidin-4-yl)-3-azabicyclo[3.2.1]octane-8-carbonitrile]	89	98	75	55	
	71			< 2	81	425	< 2			< 2		2				O=S1(=O)CCC2(CCCN(c3nc(OC[C@@]45CCCN4C[C@H](F)C5)nc4c(F)c(-c5cc(O)cc6cccc(Cl)c56)ncc34)C2)N1 (stereo partly drawn) [Example 604, 7-(7-(8-chloro-3-hydroxynaphthalen-1-yl)-8-fluoro-2-(((2R,7aS)-2-fluorohexahydro-1H-pyrrolizin-7a-yl)methoxy)pyrido[4,3-d]pyrimidin-4-yl)-2-thia-1,7-diazaspiro[4.5]decane 2,2-dioxide]	69	94	27	64	IC50 ([1]; TR-FRET tracer displacement, KRas G12C): < 2 nM; inhibition at 0.1 µM ([2]; NCI-H727, 3 h, single point, 100 nM compound, 3 hrs, H727 cells): 47%; IC50 ([3]; TR-FRET tracer displacement, KRas WT): < 2 nM; IC50 ([4]; TR-FRET tracer displacement, KRas G12S): < 2 nM; inhibition at 0.1 µM ([6]; ASPC1, 3 h, single point, 100 nM compound, 3 hrs, AsPC-1 cells): 53%; IC50 ([10]; TR-FRET tracer displacement, KRas G12A): 2 nM; IC50 ([12]; TR-FRET tracer displacement, KRas G13D): < 2 nM; IC50 ([14]; TR-FRET tracer displacement, KRas Q61H): < 2 nM
99	21	98	98	< 2	6	625	< 2	88	99	< 2	100	4	5	2	16	CCc1c(F)ccc2cc(O)cc(-c3ncc4c(N5CCCC6(CCS(=O)(=O)N6)C5)nc(OC[C@@]56CCCN5C[C@H](F)C6)nc4c3F)c12 (stereo partly drawn) [Example 643, 7-(7-(8-ethyl-7-fluoro-3-hydroxynaphthalen-1-yl)-8-fluoro-2-(((2R,7aS)-2-fluorohexahydro-1H-pyrrolizin-7a-yl)methoxy)pyrido[4,3-d]pyrimidin-4-yl)-2-thia-1,7-diazaspiro[4.5]decane 2,2-dioxide]	100			87	IC50 [16]: 13 nM
99	5	98	100	< 2	2	4680	< 2	98	98	< 2	97	2	17	1	9	CCc1c(F)ccc2cc(O)cc(-c3ncc4c(N5CCCn6nc(C(=O)N(C)C)c(C)c6C5)nc(OC[C@@]56CCCN5C[C@H](F)C6)nc4c3F)c12 [Example 670, 5-(7-(8-ethyl-7-fluoro-3-hydroxynaphthalen-1-yl)-8-fluoro-2-(((2R,7aS)-2-fluorotetrahydro-1H-pyrrolizin-7a(5H)-yl)methoxy)pyrido[4,3-d]pyrimidin-4-yl)-N,N,3-trimethyl-5,6,7,8-tetrahydro-4H-pyrazolo[1,5-a][1,4]diazepine-2-carboxamide]					IC50 [16]: 53 nM
98	6	93	98	< 2	28	4110	< 2	97	93	< 2	94	7				CCc1c(F)ccc2cc(O)cc(-c3ncc4c(N5CCCCn6nc(C(=O)N(C)C)cc6C5)nc(OC[C@@]56CCCN5C[C@H](F)C6)nc4c3F)c12 [Example 671, 5-(7-(8-ethyl-7-fluoro-3-hydroxynaphthalen-1-yl)-8-fluoro-2-(((2R,7aS)-2-fluorotetrahydro-1H-pyrrolizin-7a(5H)-yl)methoxy)pyrido[4,3-d]pyrimidin-4-yl)-N,N-dimethyl-4,5,6,7,8,9-hexahydropyrazolo[1,5-a][1,4]diazocine-2-carboxamide]	60	98	60	35	
98	21	91	97	< 2	9	> 10000	< 2	93	92	< 2	95	6	69	2	30	CCc1c(F)ccc2cc(O)cc(-c3ncc4c(N5CCC(O)c6nn(C(=O)N(C)C)cc6C5)nc(OC[C@@]56CCCN5C[C@H](F)C6)nc4c3F)c12 (stereo partly drawn) [Example 674, 5-(7-(8-ethyl-7-fluoro-3-hydroxynaphthalen-1-yl)-8-fluoro-2-(((2R,7aS)-2-fluorohexahydro-1H-pyrrolizin-7a-yl)methoxy)pyrido[4,3-d]pyrimidin-4-yl)-8-hydroxy-N,N-dimethyl-5,6,7,8-tetrahydropyrazolo[4,3-c]azepine-2(4H)-carboxamide]	63	97	74	17	IC50 [16]: 191 nM
97	37	91	96	< 2	81	7620	< 2	93	90	< 2	92	16				CCc1c(F)ccc2cc(O)cc(-c3ncc4c(N5CCCCn6nc(C(=O)N7CCOCC7)cc6C5)nc(OC[C@@]56CCCN5C[C@H](F)C6)nc4c3F)c12 [Example 690, (5-(7-(8-ethyl-7-fluoro-3-hydroxynaphthalen-1-yl)-8-fluoro-2-(((2R,7aS)-2-fluorotetrahydro-1H-pyrrolizin-7a(5H)-yl)methoxy)pyrido[4,3-d]pyrimidin-4-yl)-4,5,6,7,8,9-hexahydropyrazolo[1,5-a][1,4]diazocin-2-yl)(morpholino)methanone]	37	79	4	20	
